From patent publication US9669003B2, “Use of flavone and flavanone derivatives in preparation of sedative and hypnotic drugs” (priority 2012, dated 2017)
Marks after values point to notes of the source that are not given here.

Experiments:
Format in all cases: in vivo
[1] = test system: Kunming mice; test: Influence on autonomic activity of normal mice (ZIL-2 mice autonomic activity meter, counts within 10 min); conditions: intragastric, x ± s, n = 10; for Times of activities in 1 h after drug administration/10 min: 1 h after administration; for Times of activities in 2 h after drug administration/10 min: 2 h after administration; for Times of activities in 24 h after drug administration/10 min: 24 h after administration
Excerpt: (§1) 1.1 Animals for experiments: Kunming mice, weighting 18.9˜22.2 g for females, and 20.2˜23.0 g for males, licensed under SCXK-(Ji) 2007-0003, and provided by The experimental animal centre, Jilin University.
(§2) 1.2 Chemicals for experiments: The flavone derivatives provided in Examples 1-41 and the flavanone derivatives provided in Examples 42-71 are all formulated with 0.5% sodium carboxymethyl cellulose as solutions with required concentrations.
(§3) 1.3 Grouping of animals: 6420 animals are employed in the entire experiments and 2140 of the animals are randomly divided into 214 groups by gender, and the […] include: control group, low dosage group for each experimental drugs (25 mg/kg), medium dosage group for each experimental drugs (50 mg/kg), and high dosage group for each experimental drugs (100 mg/kg). Each group has 10 animals and either female or male constitutes half of the group. The groups are used in behavior observation and voluntary action observation. The other 4280 animals are randomly divided into 214 groups by gender respectively (the grouping way is the same with that described above). Each group has 20 animals and either female or male constitutes half of the group. In each group, 10 animals are used in hypnosis experimentations with pentobarbital sodium doses below the threshold, and the other 10 animals are used hypnosis experimentations with pentobarbital sodium doses at the threshold.
1.4 Experimental instrument and agents: ZIL-2 mice autonomic activity meter, production of Institute of Materia Medica of Chinese Academy of Medical Sciences; pentobarbital sodium, Lot: 100808, 25 g/bottle, Beijing Chemical Reagent Company equipment imported from Germany.
1.5.2 Influence on Autonomic Activity of Normal Mice
After observing the general behavior, in 1 h, 2 h and 24 h after drug administration, respectively, ZIL-2 mice autonomic activity meter is put respectively. Number of autonomic activities of each group of mice is measured within 10 min. Results among groups are compared.
(§4) Number of autonomic activities is detected by leneve Test for homogeneity of variance. If the homogeneity of variance is good (P>0.05), statistical analysis is performed with ANOVA. If ANOVA have statistical significance (P≦0.05), Dunnett's test for multiple comparisons analysis is performed. Number of animals of sleeping mice is applied of ANOVA. Incidence rate of animal asleep is applied of χ2 test. Sleep latency and sleep duration are recorded in min, averaged by group, represented by standard deviation, and undergo statistical analysis using ANOVA.

[2] = test system: Kunming mice; test: Influence on hypnosis effect with pentobarbital sodium doses below the threshold (25 mg/kg i.p.); conditions: pentobarbital sodium 25 mg/kg i.p. 60 min later, sleep observed in 30 min, n = 10
Excerpt: as §1, §2, §3
1.5.3 Influence on Hypnosis Effect with Mice Pentobarbital Sodium Doses Below the Threshold
The drug is intragastric administered in mice for single time, 2 animals of each group are given drug per round with the dosing interval of 40 min (±5 min). According to the administration round, in 60 min (±5 min) of each round after the drug administration, the animals were intraperitoneally injected 0.3% sodium pentobarbital 25 mg/kg, respectively. Sleep condition of the animals were observed within 30 min (under sleep determination standard of loss of righting reflex more than 1 min). After animals undergo loss of righting reflex, number of the animals is recorded, to calculate sleep percentage.
as §4

[3] = test system: Kunming mice; test: Influence on hypnosis effect with pentobarbital sodium doses at the threshold (50 mg/kg i.p.); conditions: pentobarbital sodium 50 mg/kg i.p. 60 min later, x ± s, n = 10
Excerpt: as §1, §2, §3
1.5.4 Influence on Hypnosis Effect with Mice Pentobarbital Sodium Doses at the Threshold
The drug is intragastric administered in mice for single time, 2 animals of each group are given drug per round with the dosing interval of 40 min (±5 min). According to the administration round, in 60 min (±5 min) of each round after the drug administration, the animals were intraperitoneally injected 0.3% sodium pentobarbital 50 mg/kg, respectively. Time to fall asleep (sleep latency) and sleep duration of the animals were recorded within under sleep determination standard of loss of righting reflex more than 1 min.
as §4

[4] = test drug 25 mg/kg intragastric single dose
[5] = test drug 50 mg/kg intragastric single dose
[6] = test drug 100 mg/kg intragastric single dose
[7] = 25 mg/kg intragastric single dose
[8] = 50 mg/kg intragastric single dose
[9] = 100 mg/kg intragastric single dose

Row | Compound | Times of activities in 1 h after drug administration/10 min ([1]; 25 mg/kg) | Times of activities in 2 h after drug administration/10 min ([1]; 25 mg/kg) | Times of activities in 24 h after drug administration/10 min ([1]; 25 mg/kg) | Times of activities in 1 h after drug administration/10 min ([1]; 50 mg/kg) | Times of activities in 2 h after drug administration/10 min ([1]; 50 mg/kg) | Times of activities in 24 h after drug administration/10 min ([1]; 50 mg/kg) | Times of activities in 1 h after drug administration/10 min ([1]; 100 mg/kg) | Times of activities in 2 h after drug administration/10 min ([1]; 100 mg/kg) | Times of activities in 24 h after drug administration/10 min ([1]; 100 mg/kg) | Number of sleeping animals [2, 4] | rate of sleeping (%) [2, 4] | Number of sleeping animals [2, 5] | rate of sleeping (%) [2, 5] | Number of sleeping animals [2, 6] | rate of sleeping (%) [2, 6] | duration of sleep [3, 7] | time to sleep [3, 7] | duration of sleep [3, 8] | time to sleep [3, 8] | duration of sleep [3, 9] | further results
1 | C=Cc1c(C#N)cc(-c2cc(=O)c3c(C=CC)cc(Cc4ccccc4)cc3o2)cc1[N+](=O)[O-] [Example 20] | 320.3 ± 49.7 /10 min | 293.6 ± 45.1 /10 min | 317.4 ± 79.6 /10 min | 283.7 ± 51.3 /10 min | 278.6 ± 47.5 /10 min | 305.2 ± 75.4 /10 min | 267.2 ± 55.3 /10 min | 250.3 ± 47.1 /10 min | 305.7 ± 79.7 /10 min | 4 | 40* % | 6 | 60** % | 6 | 60** % | 38.67 ± 21.87 min | 4.33 ± 1.58 min | 66.34 ± 22.15 min | 3.36 ± 1.20 min | 68.09 ± 29.56 min | time to sleep [3, 9]: 3.18 ± 1.10 min
2 | COc1ccc(-c2cc(=O)c3c(OC)c(OC)c(OC)c(OC)c3o2)cc1 [Example 8, 5,6,7,8,4′-penta methoxyl-flavone] | 301.3 ± 43.5 /10 min | 290.2 ± 39.6 /10 min | 286.4 ± 75.2 /10 min | 262.1 ± 55.5 /10 min | 244.7 ± 53.9 /10 min | 299.8 ± 76.4 /10 min | 185.7 ± 41.6 /10 min | 167.2 ± 48.5 /10 min | 280.4 ± 84.2 /10 min | 5 | 50** % | 6 | 60** % | 8 | 80*** % | 21.52 ± 16.93 min | 5.40 ± 1.83 min | 29.13 ± 26.44 min | 5.05 ± 1.73 min | 66.82 ± 33.63 min | time to sleep [3, 9]: 3.21 ± 1.32 min
3 | 6,7,8,4′-tetramethoxyl-flavone [Example 6] | 330.1 ± 51.2 /10 min | 314.5 ± 56.7 /10 min | 338.1 ± 96.3 /10 min | 286.7 ± 61.7 /10 min | 279.5 ± 48.2 /10 min | 311.5 ± 91.5 /10 min | 238.3 ± 36.3 /10 min | 249.8 ± 45.8 /10 min | 308.2 ± 82.7 /10 min | 3 | 30% | 5 | 50** % | 6 | 60** % | 29.81 ± 21.65 min | 5.51 ± 1.39 min | 47.21 ± 22.93 min | 4.20 ± 1.40 min | 55.33 ± 19.32 min | time to sleep [3, 9]: 3.91 ± 2.16 min
4 | N#CSc1ccc(-c2cc(=O)c3cc(N)c(F)c(C#N)c3o2)cc1O [Example 28] | 289.8 ± 50.1 /10 min | 278.3 ± 42.9 /10 min | 315.2 ± 76.3 /10 min | 248.9 ± 61.1 /10 min | 260.8 ± 58.1 /10 min | 327.5 ± 80.7 /10 min | 144.2 ± 32.5 /10 min | 237.5 ± 44.3 /10 min | 308.7 ± 84.7 /10 min | 3 | 30% | 5 | 50** % | 6 | 60** % | 27.68 ± 23.55 min | 5.48 ± 2.25 min | 46.89 ± 23.61 min | 4.31 ± 1.19 min | 55.49 ± 21.02 min | time to sleep [3, 9]: 3.93 ± 2.45 min
